Laboratory results: patent publication US10760052B2, “Method of inhibiting tau phosphorylation” (priority 2012, dated 2020)
Like-named read-outs stand apart in the source and are kept apart here.

Biological target: T1, mu opiate receptor (MOR) (Rattus norvegicus, UniProt P33535)
T1 construct: from tissue; host or cells: striatum (membrane preparation)
Assay type: biochemical
Details: for [35S]GTPγS binding, FLNA-Binding Compound as Agonist at 0.1 μM: 0.1 μM compound; for [35S]GTPγS binding, FLNA-Binding Compound as Agonist at 0.1 μM / [35S]GTPγS binding, FLNA-Binding Compound as Agonist at 1 μM: striatal membranes; for [35S]GTPγS binding, FLNA-Binding Compound as Agonist at 0.1 μM / [35S]GTPγS binding, FLNA-Binding Compound as Agonist at 1 μM + BFNA / [35S]GTPγS binding, FLNA-Binding Compound as Agonist at 1 μM: Series C-2; for [35S]GTPγS binding, FLNA-Binding Compound as Agonist at 1 μM + BFNA: 1 μM compound + 1 μM β-FNA (selective MOR antagonist); for [35S]GTPγS binding, FLNA-Binding Compound as Agonist at 1 μM: 1 μM compound
Protocol: To assess the mu opiate receptor (MOR) agonist activity of positive compounds from the FLNA screening, compounds were tested in a [^35S]GTPγS binding assay using striatal membranes. […] This assay measures a functional consequence of receptor occupancy at one of the earliest receptor-mediated events. The assay permits for traditional pharmacological parameters of potency, efficacy and antagonist affinity, with the advantage that agonist measures are not subjected to amplification or other modulation that may occur when analyzing parameters further downstream of the receptor.
Thus, striatal tissue was homogenized in 10 volumes of ice cold 25 mM HEPES buffer, pH 7.4, which contained 1 mM EGTA, 100 mM sucrose, 50 μg/ml leupeptin, 0.04 mM PMSF, 2 μg/ml soybean trypsin inhibitor and 0.2% 2-mercaptoethanol. The homogenates were centrifuged at 800×g for 5 minutes and the supernatants were centrifuged at 49,000×g for 20 minutes.
The resultant striatal membrane preparation (200 μg) was admixed and maintained (incubated) at 30° C. for 5 minutes in reaction buffer as above that additionally contained 1 mM MgCl2 and 0.5 nM [^35S]GTPγS (0.1 μCi/assay, PerkinElmer Life and Analytical Sciences) in a total volume of 250 μl and continued for 5 minutes in the absence or presence of 0.1-10 μM of an assayed compound of interest. The reaction was terminated by dilution with 750 μl of ice-cold reaction buffer that contained 20 mM MgCl2 and 1 mM EGTA and immediate centrifugation at 16,000×g for 5 minutes.
Normal rabbit serum (1 μl) was added to 1 ml of lysate and incubated at 25° C. for 30 minutes. Nonspecific immune complexes were removed by incubation with 25 μl of protein A/G-conjugated agarose beads at 25° C. for 30 minutes followed by centrifugation at 5,000×g at 4° C. for 5 minutes. The supernatant was divided and separately incubated at 25° C. for 30 minutes with antibodies raised against Gαo proteins (1:1,000 dilutions).
The immunocomplexes so formed were collected by incubation at 25° C. for 30 minutes with 40 μl of agarose-conjugated protein A/G beads and centrifugation at 5,000×g at 4° C. for 5 minutes. The pellet was washed and suspended in buffer containing 50 mM Tris-HCl, pH 8.0, and 1% NP-40. The radioactivity in the suspension was determined by liquid scintillation spectrometry.

[1] = [35S]GTPγS binding to Gαo in striatal membranes, compound 0.1 μM
[2] = [35S]GTPγS binding to Gαo in striatal membranes, compound 1 μM
[3] = [35S]GTPγS binding to Gαo in striatal membranes, compound 1 μM plus 1 μM β-funaltrexamine (MOR antagonist)

T1 sequence (P33535 whole entry): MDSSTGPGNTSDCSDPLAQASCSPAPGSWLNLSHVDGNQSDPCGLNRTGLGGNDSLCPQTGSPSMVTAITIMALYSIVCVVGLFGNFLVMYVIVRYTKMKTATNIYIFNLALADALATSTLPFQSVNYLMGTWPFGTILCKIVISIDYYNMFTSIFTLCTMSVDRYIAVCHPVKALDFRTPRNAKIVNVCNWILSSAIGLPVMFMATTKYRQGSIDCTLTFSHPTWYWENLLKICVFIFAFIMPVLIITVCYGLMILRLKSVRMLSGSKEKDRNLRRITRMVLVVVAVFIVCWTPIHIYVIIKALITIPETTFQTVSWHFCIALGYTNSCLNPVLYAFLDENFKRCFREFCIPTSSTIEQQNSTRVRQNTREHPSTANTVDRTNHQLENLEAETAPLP

Row | Structure (SMILES) | % DAMGO (0.1 μM) | % DAMGO (1 μM) | % DAMGO + BFNA | Concentration of FLNA-Binding Compound as Agonist 0.1 μM [1] | Concentration of FLNA-Binding Compound as Agonist 1 μM [2] | Concentration of FLNA-Binding Compound as Agonist 1 μM + BFNA [3] | [35S]GTPγS binding, FLNA-Binding Compound as Agonist at 0.1 μM | [35S]GTPγS binding, FLNA-Binding Compound as Agonist at 1 μM + BFNA | [35S]GTPγS binding, FLNA-Binding Compound as Agonist at 1 μM | Concentration of FLNA-Binding Compound as Agonist 0.1 μM | Concentration of FLNA-Binding Compound as Agonist 1 μM | Concentration of FLNA-Binding Compound as Agonist 1 μM + BFNA
1 | OC(COc1cccc(C(F)(F)F)c1)CN1CCc2ccccc2C1 (stereo not drawn) [Compound A0054] | 44.4% | 63.9% | 348.9% | 74.9% | 159.2% | 114.1% | – | – | – | – | – | –
2 | CC1CCCC(OCC(O)CN2CC(C)OC(C)C2)C1 (stereo not drawn) [Compound A0021] | 79.8% | 112.4% | 34.9% | 133.3% | 275.3% | 12.1% | – | – | – | – | – | –
3 | COc1c2c(cc3c1C(CC(=O)c1cccc(C(F)(F)F)c1)[N+](C)(C)CC3)OCO2 (stereo not drawn) [Compound B0006] | 44.8% | 47.5% | 29.0% | 77.0% | 131.3% | 18.6% | – | – | – | – | – | –
4 | CC1CCC(C(C)C)C(OCC(O)CN2CCCc3ccccc32)C1 (stereo not drawn) [Compound A0068] | 36.8% | 35.2% | 182.0% | 73.9% | 110.4% | 98.1% | – | – | – | – | – | –
5 | CC(C)c1ccc(S(=O)(=O)N2CCC3(CC2)OCCN3S(=O)(=O)c2ccc(C(C)C)cc2)cc1 [Compound C0007] | 46.0% | 70.5% | 17.0% | 79.1% | 195.0% | 10.9% | – | – | – | – | – | –
6 | CN1CCC2(CC1)NC(=O)CN2Cc1ccccc1 [Compound C0104M] | 99.5% | 96.3% | 296.5% | – | – | – | 188.2% | 143.8% | 238.9% | – | – | –
7 | CC1CCC(C(C)C)C(OCC(O)CN2CCSCC2)C1 (stereo not drawn) [Compound A0003] | 118.3% | 119.9% | 64.5% | – | – | – | – | – | – | 176.8% | 276.0% | 17.1%
8 | O=S(=O)(c1ccccc1)N1CCC2(CC1)OCCN2S(=O)(=O)c1ccccc1 [Compound C0016] | 100.4% | 83.3% | 150.9% | 172.7% | 230.5% | 96.7% | – | – | – | – | – | –
9 | COCOc1ccc(CCC(=O)CC2c3c(cc4c(c3OC)OCO4)CC[N+]2(C)C)cc1 (stereo not drawn) [Compound B0040] | 93.2% | 105.1% | 169.6% | 146.0% | 243.3% | 55.3% | – | – | – | – | – | –
10 | CCCCN1CCC2(CC1)OCCN2S(=O)(=O)c1ccc(OC)cc1 [Compound C0102M] | 78.6% | 122.4% | 316.6% | – | – | – | 131.8% | 150.4% | 272.0% | – | – | –
11 | O=S(=O)(c1ccc(Br)cc1C(F)(F)F)N1CCC2(CC1)OCCN2S(=O)(=O)c1ccc(Br)cc1C(F)(F)F [Compound C0068] | 53.4% | 83.8% | 307.8% | 107.2% | 263.1% | 165.9% | – | – | – | – | – | –
12 | CC1CN(CC(O)COc2cc(F)cc(F)c2)CC(C)O1 (stereo not drawn) [Compound A0046] | 131.2% | 128.3% | 189.4% | 257.5% | 354.1% | 140.0% | – | – | – | – | – | –
13 | CCOC(=O)CN1CCC2(CC1)OCCN2S(=O)(=O)c1ccc(C(C)=O)cc1 [Compound C0099M] | 93.8% | 88.0% | 241.5% | – | – | – | 157.2% | 114.7% | 195.7% | – | – | –
14 | O=[N+]([O-])c1ccc(S(=O)(=O)N2CCC3(CC2)NCCCO3)cc1 [Compound C0045] | 88.3% | 109.1% | 634.3% | – | – | – | 149.2% | 105.3% | 238.8% | – | – | –
15 | COc1ccc(S(=O)(=O)N2CCOC23CCNCC3)cc1 [Compound C0027] | 121.3% | 115.0% | 164.5% | – | – | – | 233.2% | 72.2% | 313.9% | – | – | –
16 | CC(=O)Nc1ccc(S(=O)(=O)N2CCC3(CC2)OCCN3S(=O)(=O)c2ccc(NC(C)=O)cc2)cc1 [Compound C0013] | 91.0% | 108.9% | 61.8% | 156.6% | 301.2% | 39.6% | – | – | – | – | – | –
17 | CC(=O)c1ccc(S(=O)(=O)N2CCOC23CCNCC3)cc1 [Compound C0046] | 197.4% | 211.5% | 356.4% | – | – | – | 286.2% | 156.8% | 492.9% | – | – | –
18 | COc1cccc(CC(=O)CC2c3c(cc4c(c3OC)OCO4)CC[N+]2(C)C)c1OC (stereo not drawn) [Compound B0038] | 94.2% | 88.7% | 359.2% | 147.5% | 205.5% | 117.1% | – | – | – | – | – | –
19 | COc1ccc(S(=O)(=O)N2CCC3(CC2)OCCN3S(=O)(=O)c2ccc(C(C)=O)cc2)cc1 [Compound C0048] | 144.2% | 105.3% | 204.3% | – | – | – | – | – | – | 209.1% | 245.3% | 89.9%
